Key:
Assay in all cases: relative viability (nuclei count vs DMSO), 5 days (fraction); higher = more cells survive
CAP-232 + Bortezomib = compound: C[C@H]([C@@H](C(=O)N)NC(=O)[C@@H]1CSSC[C@@H](C(=O)N[C@H](C(=O)N[C@@H](C(=O)N[C@H](C(=O)N1)CCCCN)CC2=CNC3=CC=CC=C32)CC4=CC=C(C=C4)O)NC(=O)[C@@H](CC5=CC=CC=C5)N)O [CAP-232] + CC(C)C[C@H](NC(=O)[C@H](Cc1ccccc1)NC(=O)c1cnccn1)B(O)O [Bortezomib] (partner 0.002 µM)
In short: (§1)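 Relative viability is defined as nuclei in treated wells over nuclei in vehicle wells. Duplicate plates were run and medians reported. Lung cancer cell lines in 1536-well plates were dosed by pin tool one day after seeding, with one drug or with a fixed anchor-drug dose plus five library-drug doses (not always all listed) in √10 steps, and nuclei were counted after 5 days.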

CAP-232 + Pictilisib = compound: C[C@H]([C@@H](C(=O)N)NC(=O)[C@@H]1CSSC[C@@H](C(=O)N[C@H](C(=O)N[C@@H](C(=O)N[C@H](C(=O)N1)CCCCN)CC2=CNC3=CC=CC=C32)CC4=CC=C(C=C4)O)NC(=O)[C@@H](CC5=CC=CC=C5)N)O [CAP-232] + CS(=O)(=O)N1CCN(Cc2cc3nc(-c4cccc5[nH]ncc45)nc(N4CCOCC4)c3s2)CC1 [Pictilisib] (partner 1 µM)
In short: as §1

CAP-232 + Crizotinib = compound: C[C@H]([C@@H](C(=O)N)NC(=O)[C@@H]1CSSC[C@@H](C(=O)N[C@H](C(=O)N[C@@H](C(=O)N[C@H](C(=O)N1)CCCCN)CC2=CNC3=CC=CC=C32)CC4=CC=C(C=C4)O)NC(=O)[C@@H](CC5=CC=CC=C5)N)O [CAP-232] + C[C@@H](Oc1cc(-c2cnn(C3CCNCC3)c2)cnc1N)c1c(Cl)ccc(F)c1Cl [Crizotinib] (partner 1 µM)
In short: as §1

CAP-232 + Linsitinib = compound: C[C@H]([C@@H](C(=O)N)NC(=O)[C@@H]1CSSC[C@@H](C(=O)N[C@H](C(=O)N[C@@H](C(=O)N[C@H](C(=O)N1)CCCCN)CC2=CNC3=CC=CC=C32)CC4=CC=C(C=C4)O)NC(=O)[C@@H](CC5=CC=CC=C5)N)O [CAP-232] + C[C@]1(O)C[C@@H](c2nc(-c3ccc4ccc(-c5ccccc5)nc4c3)c3c(N)nccn32)C1 [Linsitinib] (partner 1 µM)
In short: as §1

CAP-232 + Alpelisib = compound: C[C@H]([C@@H](C(=O)N)NC(=O)[C@@H]1CSSC[C@@H](C(=O)N[C@H](C(=O)N[C@@H](C(=O)N[C@H](C(=O)N1)CCCCN)CC2=CNC3=CC=CC=C32)CC4=CC=C(C=C4)O)NC(=O)[C@@H](CC5=CC=CC=C5)N)O [CAP-232] + Cc1nc(NC(=O)N2CCC[C@H]2C(N)=O)sc1-c1ccnc(C(C)(C)C(F)(F)F)c1 [Alpelisib] (partner 2 µM)
In short: as §1

| Cell Line | relative viability (CAP-232 + Bortezomib; first compound 0.4 µM) | relative viability (CAP-232 + Bortezomib; first compound 1.265 µM) | relative viability (CAP-232 + Bortezomib; first compound 4 µM) | relative viability (CAP-232 + Bortezomib; first compound 12.65 µM) | relative viability (CAP-232 + Pictilisib; first compound 0.4 µM) | relative viability (CAP-232 + Pictilisib; first compound 1.265 µM) | relative viability (CAP-232 + Pictilisib; first compound 4 µM) | relative viability (CAP-232 + Pictilisib; first compound 12.65 µM) | relative viability (CAP-232 + Crizotinib; first compound 0.4 µM) | relative viability (CAP-232 + Crizotinib; first compound 1.265 µM) | relative viability (CAP-232 + Crizotinib; first compound 4 µM) | relative viability (CAP-232 + Crizotinib; first compound 12.65 µM) | relative viability (CAP-232 + Linsitinib; first compound 0.4 µM) | relative viability (CAP-232 + Linsitinib; first compound 1.265 µM) | relative viability (CAP-232 + Linsitinib; first compound 4 µM) | relative viability (CAP-232 + Linsitinib; first compound 12.65 µM) | relative viability (CAP-232 + Alpelisib; first compound 0.4 µM) | relative viability (CAP-232 + Alpelisib; first compound 1.265 µM) | relative viability (CAP-232 + Alpelisib; first compound 4 µM) | relative viability (CAP-232 + Alpelisib; first compound 12.65 µM) |
| --- | --- | --- | --- | --- | --- | --- | --- | --- | --- | --- | --- | --- | --- | --- | --- | --- | --- | --- | --- | --- |
| COR-L 105 | 0.913 | 0.742 | 0.657 | 0.567 | 0.346 | 0.43 | 0.37 | 0.31 | 0.863 | 0.808 | 0.804 | 0.581 | 0.963 | 0.816 | 1.08 | 0.61 | 1.09 | 0.917 | 1.16 | 0.594 |
| ChaGo-K-1 | 1.45 | 0.768 | 1.06 | 0.784 | 1 | 0.51 | 0.703 | 0.256 | 1.22 | 1.17 | 1.41 | 0.833 |  |  |  |  |  |  |  |  |
| EKVX | 1.15 | 0.931 | 0.925 | 0.917 | 0.395 | 0.458 | 0.421 | 0.372 | 0.899 | 1.1 | 1.03 | 0.651 | 1.01 | 1.07 | 0.972 | 0.737 | 0.806 | 0.969 | 0.833 | 0.715 |
| EMC-BAC-2 | 1.13 | 1.11 | 1.14 | 1.12 | 0.511 | 0.51 | 0.534 | 0.48 | 0.794 | 0.753 | 0.764 | 0.709 | 0.785 | 0.796 | 0.821 | 0.774 | 0.78 | 0.718 | 0.743 | 0.623 |
| EPLC-272H | 0.992 | 0.878 | 0.892 | 0.87 | 0.284 | 0.281 | 0.325 | 0.287 | 1.16 | 0.836 | 0.791 | 0.887 | 1.33 | 1.02 | 1.3 | 1.09 | 0.895 | 0.959 | 0.988 | 0.941 |
| H3255 | 0.934 | 0.816 | 0.829 | 0.688 | 0.443 | 0.491 | 0.553 | 0.366 | 0.956 | 1.04 | 0.854 | 0.692 | 0.922 | 0.924 | 1.16 | 0.916 | 0.759 | 0.741 | 0.633 | 0.503 |
| HARA | 1.2 | 1.2 | 1.13 | 1.17 | 0.401 | 0.432 | 0.358 | 0.26 | 1.16 | 1.05 | 0.936 | 0.998 | 0.907 | 0.989 | 1.14 | 0.836 | 0.791 | 0.847 | 0.876 | 0.58 |
